# Assay results reported in PubChem BioAssay (NCI).
#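 Following 48 hours of exposure in 96-well plates, responses at five concentrations were used to interpolate endpoints linearly. TGI denotes the concentration required for complete inhibition of growth.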
# System: SK-MEL-2 melanoma
# Assay: inhibition of tumour cell growth, NCI panel, 48 h
row,Structure (SMILES),TGI
1,CCCCCCC(=O)C/C(=N/NC(N)=S)C(=O)NC1C2CC3CC(C2)CC1C3 (centres undefined),> 100 µM
2,CC1=CC(=O)N(n2c(Cc3ccccc3)n[nH]c2=O)C1=O,> 100 µM
3,O=[N+]([O-])c1cccc2nc3ccccc3c(NCCC[N+]3([O-])CCOCC3)c12,0.375 µM
4,NCCCCC(N)C(=O)NCCNc1ccc(NCCNC(=O)C(N)CCCCN)c2c1C(=O)c1ccccc1C2=O (centres undefined),> 100 µM
5,C=CCc1cc(-c2cc(CC=C)c(O)c(CNCCCl)c2)cc(CNCCCl)c1O,35.2 µM
6,CC(C)(C)c1ccc(-c2nc3ccc(Cl)cc3c(=O)o2)cc1,44.2 µM

# System: SK-MEL-28 melanoma
# Assay: inhibition of tumour cell growth, NCI panel, 48 h
row,Structure (SMILES),TGI
1,CCCCCCC(=O)C/C(=N/NC(N)=S)C(=O)NC1C2CC3CC(C2)CC1C3 (centres undefined),> 100 µM
2,CCNc1cc2c(cc1O)CC[C@@H]1[C@@H]2CC[C@]2(C)[C@@H](O)CC[C@@H]12,24.5 µM
3,O=[N+]([O-])c1cccc2nc3ccccc3c(NCCC[N+]3([O-])CCOCC3)c12,0.984 µM
4,NCCCCC(N)C(=O)NCCNc1ccc(NCCNC(=O)C(N)CCCCN)c2c1C(=O)c1ccccc1C2=O (centres undefined),> 100 µM
5,C=CCc1cc(-c2cc(CC=C)c(O)c(CNCCCl)c2)cc(CNCCCl)c1O,32.9 µM
6,CC(C)(C)c1ccc(-c2nc3ccc(Cl)cc3c(=O)o2)cc1,57.2 µM

# System: SK-MEL-5 melanoma
# Assay: inhibition of tumour cell growth, NCI panel, 48 h
row,Structure (SMILES),TGI
1,CCCCCCC(=O)C/C(=N/NC(N)=S)C(=O)NC1C2CC3CC(C2)CC1C3 (centres undefined),> 100 µM
2,CC1=CC(=O)N(n2c(Cc3ccccc3)n[nH]c2=O)C1=O,> 100 µM
3,CCNc1cc2c(cc1O)CC[C@@H]1[C@@H]2CC[C@]2(C)[C@@H](O)CC[C@@H]12,11.8 µM
4,O=[N+]([O-])c1cccc2nc3ccccc3c(NCCC[N+]3([O-])CCOCC3)c12,0.241 µM
5,NCCCCC(N)C(=O)NCCNc1ccc(NCCNC(=O)C(N)CCCCN)c2c1C(=O)c1ccccc1C2=O (centres undefined),> 100 µM
6,C=CCc1cc(-c2cc(CC=C)c(O)c(CNCCCl)c2)cc(CNCCCl)c1O,28.6 µM
7,CC(C)(C)c1ccc(-c2nc3ccc(Cl)cc3c(=O)o2)cc1,26.2 µM

# System: SK-OV-3 ovarian
# Assay: inhibition of tumour cell growth, NCI panel, 48 h
row,Structure (SMILES),TGI
1,CC1=CC(=O)N(n2c(Cc3ccccc3)n[nH]c2=O)C1=O,> 100 µM
2,CCNc1cc2c(cc1O)CC[C@@H]1[C@@H]2CC[C@]2(C)[C@@H](O)CC[C@@H]12,> 39 µM
3,O=[N+]([O-])c1cccc2nc3ccccc3c(NCCC[N+]3([O-])CCOCC3)c12,1.53 µM
4,NCCCCC(N)C(=O)NCCNc1ccc(NCCNC(=O)C(N)CCCCN)c2c1C(=O)c1ccccc1C2=O (centres undefined),> 100 µM
5,CC(C)(C)c1ccc(-c2nc3ccc(Cl)cc3c(=O)o2)cc1,68.7 µM

# System: SN12C renal
# Assay: inhibition of tumour cell growth, NCI panel, 48 h
row,Structure (SMILES),TGI
1,CCCCCCC(=O)C/C(=N/NC(N)=S)C(=O)NC1C2CC3CC(C2)CC1C3 (centres undefined),> 100 µM
2,CC1=CC(=O)N(n2c(Cc3ccccc3)n[nH]c2=O)C1=O,> 100 µM
3,CCNc1cc2c(cc1O)CC[C@@H]1[C@@H]2CC[C@]2(C)[C@@H](O)CC[C@@H]12,29.1 µM
4,O=[N+]([O-])c1cccc2nc3ccccc3c(NCCC[N+]3([O-])CCOCC3)c12,0.993 µM
5,NCCCCC(N)C(=O)NCCNc1ccc(NCCNC(=O)C(N)CCCCN)c2c1C(=O)c1ccccc1C2=O (centres undefined),99.1 µM
6,C=CCc1cc(-c2cc(CC=C)c(O)c(CNCCCl)c2)cc(CNCCCl)c1O,44.6 µM
7,CC(C)(C)c1ccc(-c2nc3ccc(Cl)cc3c(=O)o2)cc1,> 100 µM

# System: SNB-19 CNS
# Assay: inhibition of tumour cell growth, NCI panel, 48 h
row,Structure (SMILES),TGI
1,CCCCCCC(=O)C/C(=N/NC(N)=S)C(=O)NC1C2CC3CC(C2)CC1C3 (centres undefined),> 100 µM
2,CC1=CC(=O)N(n2c(Cc3ccccc3)n[nH]c2=O)C1=O,> 100 µM
3,CCNc1cc2c(cc1O)CC[C@@H]1[C@@H]2CC[C@]2(C)[C@@H](O)CC[C@@H]12,> 46.1 µM
4,O=[N+]([O-])c1cccc2nc3ccccc3c(NCCC[N+]3([O-])CCOCC3)c12,2.8 µM
5,NCCCCC(N)C(=O)NCCNc1ccc(NCCNC(=O)C(N)CCCCN)c2c1C(=O)c1ccccc1C2=O (centres undefined),> 100 µM
6,C=CCc1cc(-c2cc(CC=C)c(O)c(CNCCCl)c2)cc(CNCCCl)c1O,> 100 µM
7,CC(C)(C)c1ccc(-c2nc3ccc(Cl)cc3c(=O)o2)cc1,80.1 µM

# System: SNB-75 CNS
# Assay: inhibition of tumour cell growth, NCI panel, 48 h
row,Structure (SMILES),TGI
1,CCCCCCC(=O)C/C(=N/NC(N)=S)C(=O)NC1C2CC3CC(C2)CC1C3 (centres undefined),> 100 µM
2,CCNc1cc2c(cc1O)CC[C@@H]1[C@@H]2CC[C@]2(C)[C@@H](O)CC[C@@H]12,11.4 µM
3,O=[N+]([O-])c1cccc2nc3ccccc3c(NCCC[N+]3([O-])CCOCC3)c12,0.683 µM
4,NCCCCC(N)C(=O)NCCNc1ccc(NCCNC(=O)C(N)CCCCN)c2c1C(=O)c1ccccc1C2=O (centres undefined),> 100 µM
5,C=CCc1cc(-c2cc(CC=C)c(O)c(CNCCCl)c2)cc(CNCCCl)c1O,> 100 µM
6,CC(C)(C)c1ccc(-c2nc3ccc(Cl)cc3c(=O)o2)cc1,81.6 µM

# System: SNB-78 CNS
# Assay: inhibition of tumour cell growth, NCI panel, 48 h
row,Structure (SMILES),TGI
1,CCCCCCC(=O)C/C(=N/NC(N)=S)C(=O)NC1C2CC3CC(C2)CC1C3 (centres undefined),> 100 µM
2,C=CCc1cc(-c2cc(CC=C)c(O)c(CNCCCl)c2)cc(CNCCCl)c1O,> 100 µM

# System: SR leukemia
# Assay: inhibition of tumour cell growth, NCI panel, 48 h
row,Structure (SMILES),TGI
1,CC1=CC(=O)N(n2c(Cc3ccccc3)n[nH]c2=O)C1=O,> 100 µM
2,CCNc1cc2c(cc1O)CC[C@@H]1[C@@H]2CC[C@]2(C)[C@@H](O)CC[C@@H]12,41.2 µM
3,O=[N+]([O-])c1cccc2nc3ccccc3c(NCCC[N+]3([O-])CCOCC3)c12,> 40.8 µM
